{"source": "patent US20100279957A1", "about": "“PREDICTING RESPONSIVENESS TO CANCER THERAPEUTICS” (priority 2007, published 2010)", "key": {"NCI-60 cell line panel": {"test_system": "NCI-60 cell line panel", "design": "key: Sensitive; Resistant", "settings": "cited from earlier work"}, "[1]": {"test_system": "breast cancer, advanced ovarian cancer", "settings": "responders/patients, cited from earlier work"}, "[2]": {"test_system": "breast cancer, advanced ovarian cancer", "assay": "Clinical response to single agent chemotherapy in patients (breast neoadjuvant docetaxel; ovarian salvage docetaxel, topotecan, taxol; adriamycin treated patients)", "assay_type": "in vivo, human", "settings": "Ovarian tumor data set; responders/patients", "from_the_text": "The development of a gene expression signature capable of predicting in vitro docetaxel sensitivity provides a tool that might be useful in predicting response to the drug in patients. We made use of published studies with clinical and genomic data that linked gene expression data with clinical response to docetaxel in a breast cancer neoadjuvant study^50 (FIG. 1D) to test the capacity of the in vitro docetaxel sensitivity predictor to accurately identify those patients that responded to docetaxel. […] We extended this further by predicting the response to docetaxel as salvage therapy for ovarian cancer.\nGiven the ability of the in vitro developed gene expression profiles to predict response to docetaxel in the clinical samples, we extended this approach to test the ability of additional signatures to predict response to commonly used salvage therapies for ovarian cancer and an independent data set of samples from adriamycin treated patients (Evans W, GSE650, GSE651). […] In each case, the positive and negative predictive values confirm the validity and clinical utility of the approach (Table 16).\nFull details of the methods used for RNA extraction and development of gene expression signatures representing deregulation of oncogenic pathways in the tumor samples were recently described.^36 Response to therapy was evaluated using standard criteria for patients with measurable disease, based upon WHO guidelines.^28"}}, "note": "Like-named read-outs stand apart in the source and are kept apart here."}
{"smiles": "O=c1[nH]cc(F)c(=O)[nH]1", "note": "[5-FU, 5-fluorouracil]", "values": [{"measurement": "Resistant or Sensitive (Res or Sen)", "setting": "NCI-60 cell line panel; A498, Renal", "result": "Sen"}, {"measurement": "Resistant or Sensitive (Res or Sen)", "setting": "NCI-60 cell line panel; COLO 205, Colon", "result": "Sen"}, {"measurement": "Resistant or Sensitive (Res or Sen)", "setting": "NCI-60 cell line panel; EKVX, Non-Small Cell Lung", "result": "Res"}, {"measurement": "Resistant or Sensitive (Res or Sen)", "setting": "NCI-60 cell line panel; HCT-116, Colon", "result": "Sen"}, {"measurement": "Resistant or Sensitive (Res or Sen)", "setting": "NCI-60 cell line panel; LOX IMVI, Melanoma", "result": "Sen"}, {"measurement": "Resistant or Sensitive (Res or Sen)", "setting": "NCI-60 cell line panel; M14, Melanoma", "result": "Res"}, {"measurement": "Resistant or Sensitive (Res or Sen)", "setting": "NCI-60 cell line panel; MCF7, Breast", "result": "Sen"}, {"measurement": "Resistant or Sensitive (Res or Sen)", "setting": "NCI-60 cell line panel; MDA-MB-435, Melanoma", "result": "Res"}, {"measurement": "Resistant or Sensitive (Res or Sen)", "setting": "NCI-60 cell line panel; NCI-H460, Non-Small Cell Lung", "result": "Sen"}, {"measurement": "Resistant or Sensitive (Res or Sen)", "setting": "NCI-60 cell line panel; NCI/ADR-RES, Ovarian", "result": "Res"}, {"measurement": "Resistant or Sensitive (Res or Sen)", "setting": "NCI-60 cell line panel; OVCAR-8, Ovarian", "result": "Res"}, {"measurement": "Resistant or Sensitive (Res or Sen)", "setting": "NCI-60 cell line panel; SK-MEL-5, Melanoma", "result": "Sen"}, {"measurement": "Resistant or Sensitive (Res or Sen)", "setting": "NCI-60 cell line panel; SN12C, Renal", "result": "Res"}, {"measurement": "Resistant or Sensitive (Res or Sen)", "setting": "NCI-60 cell line panel; SW-620, Colon", "result": "Res"}, {"measurement": "Resistant or Sensitive (Res or Sen)", "setting": "NCI-60 cell line panel; UO-31, Renal", "result": "Sen"}]}
{"smiles": "COc1cccc2c1C(=O)c1c(O)c3c(c(O)c1C2=O)C[C@@](O)(C(=O)CO)C[C@@H]3O[C@H]1C[C@H](N)[C@H](O)[C@H](C)O1", "note": "[adriamycin]", "values": [{"measurement": "Actual Overall Response", "setting": "[1]; Evans et al. patient data set", "result": "24/122 (19.6%)"}]}
{"smiles": "CC(=O)O[C@@]12CO[C@@H]1C[C@H](O)[C@@]1(C)C(=O)[C@H](O)C3=C(C)[C@@H](OC(=O)[C@H](O)[C@@H](NC(=O)OC(C)(C)C)c4ccccc4)C[C@@](O)([C@@H](OC(=O)c4ccccc4)[C@H]21)C3(C)C", "note": "[docetaxel]", "values": [{"measurement": "Actual Overall Response", "setting": "[2]", "result": "7/14 (50%)"}, {"measurement": "Actual Overall Response", "setting": "[1]; Breast Tumor Data, neoadjuvant (Chang et al.)", "result": "13/24 (54.1%)"}]}
{"smiles": "CC(=O)O[C@H]1C(=O)[C@@]2(C)[C@H]([C@H](OC(=O)c3ccccc3)[C@]3(O)C[C@H](OC(=O)[C@H](O)[C@@H](NC(=O)c4ccccc4)c4ccccc4)C(C)=C1C3(C)C)[C@]1(OC(C)=O)CO[C@@H]1C[C@@H]2O", "note": "[taxol, paclitaxel]", "values": [{"measurement": "Actual Overall Response", "setting": "[2]", "result": "20/35 (57.1%)"}]}
{"smiles": "CC[C@@]1(O)C(=O)OCc2c1cc1n(c2=O)Cc2cc3c(CN(C)C)c(O)ccc3nc2-1", "note": "[topotecan]", "values": [{"measurement": "Actual Overall Response", "setting": "[2]", "result": "20/48 (41.6%)"}]}
